According to US20040014721A1, “Method for using tethered bis(polyhydroxyphenyls) and O-alkyl derivatives thereof in treating inflammatory conditions of the central nervous system” (Oklahoma Medical Research Foundation, priority 2002, published 2004):
pIC50: −log10 of the molar value. Read-outs that look alike come from different tables or passages of the source. Marks after values point to notes of the source that are not given here. One block for each molecule: values may come before it.

Legend:
[1] = tested on: TNFα-Stimulated NO2^− Production in EOC-20 Cells; assay: TNFα-stimulated nitrite (NO2−) production in EOC-20 microglial cells, Griess assay; format: cell-based, mouse; conditions: for pIC50: read-out: IC50
Procedure: Cells were cultured in 24 well plates until confluent then treated with test agent, which was dissolved at 100× final concentration in dimethylsulfoxide (DMSO), or with vehicle only. Thirty minutes after treatment with test agent, cells were treated with 10 ng/mL recombinant mouse TNFα (Pharmingen, San Diego, Calif. USA). […] Each compound was tested at 100 μM, 20 μM, 4 μM, 0.8 μM and 0 μM in the presence of TNFα. Four wells of cells were used for each concentration of test agent.
(§1) Lower IC50 values indicate improved efficacy. FIG. 2 illustrates the principle of the measurement using NDGA as an example test agent. In order to determine viability, cell culture medium was replaced with phenol-free DMEM (Gibco) containing 20 μL/mL of MTT viability reagent (Promega). […] Control cells were taken to indicate 100% viability and intermediate values of MTT reduction were scaled to percentage of control. For each compound, an LD50 value was determined by extrapolation through sublethal concentrations. This value represents the concentration that reduced the MTT viability parameter by 50%.

[2] = tested on: C6 astrocyte culture exposed to lipopolysaccharide plus interferon gamma; conditions: LPS-stimulated C6 astrocyte model, Soliman et al., 1998; cited from earlier work
C57/B6 mice = assay: 3-nitropropionic acid (3NP) striatal damage model, rotarod and balance beam; format: in vivo; conditions: 2500 ppm in diet for one month, then 3NP 50 mg/kg i.p. every 12 h for 5 days
Procedure: Mice were then injected with 50 mg/kg 3NP intraperitoneally, every 12 h for 5 days. Motor performance was assessed daily by a rotarod task and balance was assessed by a balance wire task. In the rotarod task (Hensley et al. 2002), animals were placed on a bar rotating at 1 rpm and accelerating 10 rpm/minute until the animal fell from the bar. In the balance beam test, mice were placed on a 2-cm balance beam by suspending them by the tail, orienting them perpendicular to the beam, and placing the forepaws followed by hindpaws on the balance beam. Mice were left on the beam until they fell onto a soft cushion 75 cm below or until 5 min elapsed. The longest time of each pair of trials was used for statistical analysis.

LnCAP Production of PSA = assay: LnCAP production of PSA (ELISA); format: cell-based; conditions: 24 h
Procedure: LnCAP prostate cancer cells were be cultured according to established methods (Horoszewicz et al., 1983). These cells product prostate-specific antigen (PSA), a serine protease that predicts metastatic potential ([…] et al., 2000). […] Each drug was tested in triplicate at each concentration. Medium was removed and tested for PSA concentration using a commercially available enzyme-linked immunosorbent assay (ELISA). Viability was determined in the adherent cells using the MTT assay.

EOC-20 cells = tested on: EOC-20 cells
Procedure: as §1

[3] = tested on: TNFα-Mediated Nitrite Production in EOC-20 Cells; assay: Leukotrienes added to EOC-20 cells with or without low-dose TNFα, nitrite at 24 h; format: cell-based, mouse; conditions: for autonomous stimulation of NO2− production: without TNFα
Procedure: Because 5LOX inhibitors tended to antagonize TNFα, the converse experiment was performed of directly adding 5LOX metabolites to EOC-20 cells in the presence or absence of TNFα. LTB4 was added to microglia at 10 μM and TNFα was added at a low dose (4 ng/mL) 10 min later. Nitrite was assayed at 24 h. […] Similar examples exist in the literature of LTB4 synergizing with IFNγ to activate macrophages (Talvani et al., 2002).

G93A-SOD1 mice = conditions: administered chronically; Gurney et al., 1996; cited from earlier work
[4] = tested on: pro-inflammatory cytokines in EOC-20 microglial cells; assay: Multiprobe ribonuclease protection assay of cytokine transcription in TNFα-stimulated EOC-20 cells; format: cell-based, mouse
From the text: It was noted that IL1β, IL1RA, IFNγ and MIF were affected by the treatments, while IL18 was not.

lipoxygenase = conditions: cited from earlier work
[5] = Table III, 10 ng/mL TNFα, 24 hr, by interpolation
[6] = Homo sapiens, LNCaP, extrapolated
[7] = Mus musculus, 24 h, Table III, 10 ng/mL TNFα, 24 hr, by interpolation
[8] = Table III, MTT viability, by extrapolation through sublethal concentrations

Molecule: 7-Bis (4-hydroxy-3-methoxyphenyl)-1,6-heptadiene-3,5-dione [Curcumin]
pIC50 [1, 5]: 5.15
pIC50 ([1]; Table V): 4.85
pIC50 [2]: 4.14
balance test (C57/B6 mice): no effect
rotarod test (C57/B6 mice): possibly a detrimental effect

Molecule: O=c1c(O)c(-c2ccc(O)c(O)c2)oc2cc(O)cc(O)c12 [Quercetin]
pIC50 (LnCAP Production of PSA; [6]): 3.88
LD50 (EOC-20 cells): nontoxic
pIC50 [1, 7]: 4.36
pIC50 [2]: 7.21

Molecule: CCCCC/C=C\C[C@@H](O)/C=C/C=C/C=C\[C@@H](O)CCCC(=O)O [LTB4, Leukotriene B4]
effect on nitrite yield with low-dose TNFα ([3]; 10 μM, TNFα 4 ng/mL, 24 h): synergized with low-dose TNFα to produce a significantly greater nitrite yield
autonomous stimulation of NO2− production [3]: Neither LTA4 nor LTB4 stimulated NO2^− production autonomously

Molecule: Nc1nc2ccc(OC(F)(F)F)cc2s1 [Riluzole]
extension in lifespan (G93A-SOD1 mice): 10 days

Molecule: Oc1cc(O)cc(/C=C/c2ccc(O)c(O)c2)c1 [Piceatannol, 3,3′,4′,5 -tetrahydroxy stilbene]
pIC50 (LnCAP Production of PSA; Homo sapiens, LNCaP): 4.38
LD50 (EOC-20 cells; [8]): nontoxic
transcription of pro-inflammatory cytokines [4]: differentially inhibited transcription of the pro-inflammatory cytokines
pIC50 [1, 7]: 4.82

pIC50 (LnCAP Production of PSA; Homo sapiens, LNCaP): 4.37
pIC50 [1, 7]: 4.10
Molecule: Oc1ccc(/C=C/c2cc(O)cc(O)c2)cc1 [Resveratrol, 3,4′,5-trihydroxy stilbene]
LD50 (EOC-20 cells): nontoxic

pIC50 (LnCAP Production of PSA; [6]): 3.89
pIC50 [1, 7]: 3.94
Molecule: O=c1c(-c2ccc(O)cc2)coc2cc(O)ccc12 [Daidzein, 4,7-dihydroxyisoflavone]

Molecule: CCCCC/C=C\C\C=C/C=C/C=C/[C@@H]1O[C@H]1CCCC(=O)O [LTA4]
autonomous stimulation of NO2− production [3]: Neither LTA4 nor LTB4 stimulated NO2^− production autonomously

Molecule: O=c1c(O)c(-c2ccc(O)cc2O)oc2cc(O)cc(O)c12 [morin]
pIC50 [2]: 4.25

Molecule: O=C(O[C@@H]1Cc2c(O)cc(O)cc2O[C@@H]1c1ccc(O)c(O)c1)c1cc(O)c(O)c(O)c1 [epicatechin gallate]
pIC50 [2]: 5.00

Molecule: O=c1cc(-c2ccccc2)oc2cccc(O)c12 [5-OH-flavone]
pIC50 (LnCAP Production of PSA; extrapolated): 3.64
LD50 (EOC-20 cells): 310 μm
pIC50 [1, 5]: 4.47

pIC50 (LnCAP Production of PSA; Homo sapiens, LNCaP): 4.17
pIC50 [1, 7]: 4.33
Molecule: O=c1c(O)c(-c2ccc(O)cc2)oc2cc(O)cc(O)c12 [Kaempherol, 3,4′,5,7-tetrahydroxy-flavone]
LD50 (EOC-20 cells; mouse): 70 μm

Molecule: O=c1cc(-c2ccccc2)oc2cc(O)cc(O)c12 [Chrysin, 5,7-dihydroxy-flavone]
pIC50 (LnCAP Production of PSA; Homo sapiens, LNCaP): 4.04
LD50 (EOC-20 cells; [8]): 85 μm
pIC50 [1, 7]: 4.20

IC50 Values (ELISA), PSA production (LnCAP Production of PSA): Inactive
Molecule: Oc1cc(O)c2c(c1)O[C@H](c1ccc(O)c(O)c1)[C@H](O)C2 [Epicatechin]

Molecule: O=C(/C=C/c1ccc(O)c(O)c1)OCCc1ccccc1 [caffeic acid phenethyl ester (CAPE), caffeic acid phenethyl ester]
lipoxygenase inhibition relative to NDGA (lipoxygenase; times more effective than NDGA, Mirzoeva and Calder, 1996): ~10 times
activity against TNFα-stimulated nitrite production [1]: approximately as effective as curcumin
pIC50 [1, 7]: 4.92
pIC50 ([1]; Mus musculus, Table V): 4.92
efficacy relative to NDGA as inhibitor of TNFα-stimulated microglial activation ([1]; fold less effective than NDGA): 4 fold

Molecule: COc1ccc(C[C@@H](C)[C@@H](C)Cc2ccc(OC)c(OC)c2)cc1OC [tetra-o-methyl-NDGA]
LD50 (EOC-20 cells): 125* μM
lipoxygenase inhibition (lipoxygenase; literature): does not inhibit lipoxygenase
activity against TNFα-stimulated nitrite production [1]: modest bioactivity
pIC50 ([1]; Table V): 4.70

Molecule: CC(C)(C)/[N+]([O-])=C/c1ccccc1 [phenyl N tert-butyl-nitrone (PBN), phenyl N tert-butyl-nitrone]
LD50 (EOC-20 cells; [8]): nontoxic
pIC50 [1, 5]: 4.00

Molecule: CC(C)(C)[N+]([O-])=Cc1cccc(O)c1 [3-OH-PBN]
LD50 (EOC-20 cells; [8]): nontoxic
IC50 [1, 5]: Inactive
